Values joined by “and” are separate entries in the source; they are usually repeats but may differ in a detail not shown here. Identical values can stand only once.

This test concerns Swiss mice, Sarcoma 180 sc, mean tumor weight T/C. Briefly: NCI In Vivo Anticancer Drug Screen. Data for tumor model Sarcoma 180 (subcutaneous) in Swiss mice. The following applies: endpoint: mean tumor weight, higher = larger tumour. Summed up: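 Transplantable tumors were established in mice, compound was given, then survival or tumor size was recorded. The treated value was divided by the vehicle-control value.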

[1] abbreviates: dose: 50.0 mg/kg/injection, schedule: Q01DX007 (ip), vehicle: carboxymethylcellulose (CMC).
[2] abbreviates: dose: 125.0 mg/kg/injection, schedule: Q01DX007 (ip), vehicle: saline.
The mark [3] stands for this setting: dose: 125.0 mg/kg/injection, schedule: Q01DX007 (sc), vehicle: steriod suspending solution.

For `CCC(=O)NC`, the T/C was 41 % of control and 63 % of control (dose: 1000.0 mg/kg/injection, schedule: Q01DX007 (ip), vehicle: other); 14 % of control and 33 % of control (dose: 1250.0 mg/kg/injection, schedule: Q01DX007 (ip), vehicle: other).

Take `COc1ccc2c(c1)CC[C@@H]1[C@@H]2CC[C@]2(C)[C@H](O)[C@H](O)C[C@@H]12`: the T/C (dose: 0.5 mg/kg/injection, schedule: Q01DX007 (sc), vehicle: steriod suspending solution) was 117 % of control; the T/C (dose: 1.25 mg/kg/injection, schedule: Q01DX007 (sc), vehicle: steriod suspending solution) was 81 % of control; the T/C (dose: 2.5 mg/kg/injection, schedule: Q01DX007 (sc), vehicle: steriod suspending solution) was 66 % of control and 90 % of control; the T/C (dose: 5.0 mg/kg/injection, schedule: Q01DX007 (sc), vehicle: steriod suspending solution) was 60 % of control; the T/C (dose: 10.0 mg/kg/injection, schedule: Q01DX007 (sc), vehicle: steriod suspending solution) is 61 % of control.

`O=C(CCCl)N1CCN(C(=O)CCCl)CC1`: the T/C by setting is: (dose: 110.0 mg/kg/injection, schedule: Q#A X014 (ip), vehicle: methylcellulose (MC)) 66 % of control; (dose: 167.5 mg/kg/injection, schedule: Q#A X014 (ip), vehicle: methylcellulose (MC)) 54 % of control.

On to `CC(=O)Nc1c(Cl)c(Cl)c2c(c1Cl)Cc1cc(Br)ccc1-2`, for which the T/C (dose: 3.0 mg/kg/injection, schedule: Q01DX007 (ip), vehicle: carboxymethylcellulose (CMC)) is 75 % of control; the T/C (dose: 6.0 mg/kg/injection, schedule: Q01DX007 (ip), vehicle: carboxymethylcellulose (CMC)) is 74 % of control; the T/C (dose: 6.0 mg/kg/injection, schedule: Q01DX007 (ip), vehicle: other) was 38 % of control; the T/C (dose: 9.0 mg/kg/injection, schedule: Q01DX007 (ip), vehicle: other) was 69 % of control; the T/C (dose: 12.0 mg/kg/injection, schedule: Q01DX007 (ip), vehicle: carboxymethylcellulose (CMC)) is 45 % of control; the T/C (dose: 13.0 mg/kg/injection, schedule: Q01DX007 (ip), vehicle: other) is 46 % of control. The T/C (dose: 19.0 mg/kg/injection, schedule: Q01DX007 (ip), vehicle: other) is 56 % of control; the T/C (dose: 25.0 mg/kg/injection, schedule: Q01DX007 (ip), vehicle: carboxymethylcellulose (CMC)) was 63 % of control; the T/C (dose: 28.0 mg/kg/injection, schedule: Q01DX007 (ip), vehicle: other) is 35 % of control; the T/C (dose: 41.0 mg/kg/injection, schedule: Q01DX007 (ip), vehicle: other) is 62 % of control; the T/C under setting [1] was 49 % of control; the T/C (dose: 63.0 mg/kg/injection, schedule: Q01DX007 (ip), vehicle: other) is 33 % of control. Where the note is “dose: 100.0 mg/kg/injection, schedule: Q01DX007 (ip), vehicle: carboxymethylcellulose (CMC)”, the T/C is 30 % of control.

For the compound `O=NN1CCN(N=O)CC1`, the T/C (dose: 5.06 mg/kg/injection, schedule: Q#A X014 (ip), vehicle: carboxymethylcellulose (CMC)) was 100 % of control; the T/C (dose: 20.25 mg/kg/injection, schedule: Q#A X014 (ip), vehicle: carboxymethylcellulose (CMC)) was 101 % of control; the T/C (dose: 40.5 mg/kg/injection, schedule: Q#A X014 (ip), vehicle: carboxymethylcellulose (CMC)) is 88 % of control.

For the compound `O=C1NC(=O)C2(CCCc3ccc(N(CCCl)CCCl)cc32)N1` (stereo unspecified), the T/C (dose: 16.0 mg/kg/injection, schedule: Q01DX007 (ip), vehicle: other) was 70 % of control; the T/C (dose: 16.0 mg/kg/injection, schedule: Q01DX007 (ip), vehicle: saline) is 67 % of control; the T/C (dose: 24.0 mg/kg/injection, schedule: Q01DX007 (ip), vehicle: other) was 107 % of control; the T/C (dose: 24.0 mg/kg/injection, schedule: Q01DX007 (ip), vehicle: saline) is 85 % of control; the T/C (dose: 36.0 mg/kg/injection, schedule: Q01DX007 (ip), vehicle: other) is 61 % of control; the T/C (dose: 36.0 mg/kg/injection, schedule: Q01DX007 (ip), vehicle: saline) was 75 % of control. The T/C (dose: 55.0 mg/kg/injection, schedule: Q01DX007 (ip), vehicle: saline) is 52 % of control; the T/C under setting [2] is 29 % of control; the T/C (dose: 188.0 mg/kg/injection, schedule: Q01DX007 (ip), vehicle: other) was 65 % of control; the T/C (dose: 282.0 mg/kg/injection, schedule: Q01DX007 (ip), vehicle: other) is 80 % of control; the T/C (dose: 423.0 mg/kg/injection, schedule: Q01DX007 (ip), vehicle: other) is 81 % of control.

`N=C(c1nsnc1N)N1CCCC1`: the T/C under setting [2] was 100 % of control.

Take `CC(/C=N\N=C(N)N)=N/N=C(N)N`: the T/C (dose: 42.1 mg/kg/injection, schedule: Q01DX007 (ip), vehicle: carboxymethylcellulose (CMC)) is 113 % of control.

In the case of `C[C@]12CCC(=O)C=C1[C@@H](F)C[C@@H]1[C@@H]2[C@@H](O)C[C@@]2(C)[C@H]1CC[C@]2(O)C(=O)CO`, the T/C is, setting by setting: (dose: 37.0 mg/kg/injection, schedule: Q01DX007 (sc), vehicle: steriod suspending solution) 76 % of control; (dose: 56.0 mg/kg/injection, schedule: Q01DX007 (sc), vehicle: steriod suspending solution) 89 % of control; under setting [3], 97 % of control; (dose: 126.0 mg/kg/injection, schedule: Q01DX007 (sc), vehicle: steriod suspending solution) 33 % of control; (dose: 188.0 mg/kg/injection, schedule: Q01DX007 (sc), vehicle: steriod suspending solution) 29 % of control.

In the case of `CC[C@H](c1ccc(O)cc1)[C@@H](CC)c1ccc(O)cc1`, the T/C is, setting by setting: (dose: 3.8 mg/kg/injection, schedule: Q01DX007 (sc), vehicle: steriod suspending solution) 186 % of control; (dose: 7.5 mg/kg/injection, schedule: Q01DX007 (sc), vehicle: steriod suspending solution) 67 % of control; (dose: 15.0 mg/kg/injection, schedule: Q01DX007 (sc), vehicle: steriod suspending solution) 37 % of control and 43 % of control; (dose: 62.0 mg/kg/injection, schedule: Q01DX007 (sc), vehicle: steriod suspending solution) 49 % of control and 67 % of control; under setting [3], 40 % of control and 43 % of control; (dose: 250.0 mg/kg/injection, schedule: Q01DX007 (sc), vehicle: steriod suspending solution) 54 % of control.

With `NN1CCCC1`, the T/C is 86 % of control (dose: 33.0 mg/kg/injection, schedule: Q01DX007 (ip), vehicle: carboxymethylcellulose (CMC)); 161 % of control (dose: 33.0 mg/kg/injection, schedule: Q01DX007 (ip), vehicle: saline); 71 % of control under setting [1]; 179 % of control (dose: 50.0 mg/kg/injection, schedule: Q01DX007 (ip), vehicle: saline); 20 % of control (dose: 75.0 mg/kg/injection, schedule: Q01DX007 (ip), vehicle: carboxymethylcellulose (CMC)); 86 % of control (dose: 75.0 mg/kg/injection, schedule: Q01DX007 (ip), vehicle: saline). Further, the T/C by setting is: (dose: 113.0 mg/kg/injection, schedule: Q01DX007 (ip), vehicle: saline) 70 % of control; (dose: 133.0 mg/kg/injection, schedule: Q01DX007 (ip), vehicle: saline) 55 % of control; (dose: 200.0 mg/kg/injection, schedule: Q01DX007 (ip), vehicle: saline) 36 % of control.

Take `Nc1ccc(C(=O)NCCCC(=O)O)cc1`: the T/C runs as follows: (dose: 125.0 mg/kg/injection, schedule: Q01DX007 (ip), vehicle: water) 101 % of control; (dose: 500.0 mg/kg/injection, schedule: Q01DX007 (ip), vehicle: water) 90 % of control.

Take `O=C(NC(CO)C(=O)O)C(Cl)Cl` (stereo unspecified): the T/C is 47 % of control (dose: 500.0 mg/kg/injection, schedule: Q#A X014 (ip), vehicle: methylcellulose (MC)); 52 % of control (dose: 1000.0 mg/kg/injection, schedule: Q#A X014 (ip), vehicle: methylcellulose (MC)); 60 % of control (dose: 1500.0 mg/kg/injection, schedule: Q#A X014 (ip), vehicle: methylcellulose (MC)); 66 % of control (dose: 2000.0 mg/kg/injection, schedule: Q#A X014 (ip), vehicle: methylcellulose (MC)); 68 % of control (dose: 2500.0 mg/kg/injection, schedule: Q#A X014 (ip), vehicle: methylcellulose (MC)).

Take `CCN(CC)P(=O)(N1CC1)N1CC1`: the T/C (dose: 1.0 mg/kg/injection, schedule: Q#A X014 (ip), vehicle: methylcellulose (MC)) was 64 % of control; the T/C (dose: 1.0 mg/kg/injection, schedule: Q#A X014 (ip), vehicle: saline) was 90 % of control and 92 % of control; the T/C (dose: 1.5 mg/kg/injection, schedule: Q#A X014 (ip), vehicle: methylcellulose (MC)) is 60 % of control; the T/C (dose: 2.0 mg/kg/injection, schedule: Q#A X014 (ip), vehicle: methylcellulose (MC)) was 82 % of control; the T/C (dose: 3.0 mg/kg/injection, schedule: Q#A X014 (ip), vehicle: saline) was 19 % of control and 38 % of control; the T/C (dose: 4.0 mg/kg/injection, schedule: Q01DX007 (ip), vehicle: saline) is 48 % of control.

The record behind these values is PubChem BioAssay AID342 (DTP/NCI, 2004).
